Experimental data taken from US5922580A, “Non-reducing saccharide-forming enzyme, its preparation and uses” (priority 1992, dated 1999).

Columns and labels:
[1] = Hygroscopicity of product; assay type: physicochemical; settings: powdery product
glucoamylase = assay: Enzymatic hydrolysis by glucoamylase; assay type: biochemical; settings: for Glucose / Trehalose: 50 mg in 1 ml 50 mM acetate buffer pH 4.5, one unit glucoamylase, 40° C., 6 hours, HPLC; for Molecular ratio (Glucose/Trehalose): glucoamylase hydrolysate
Procedure: Fifty mg aliquots of non-reducing saccharides P I, P II, P III, P IV and P V in Experiment 4 were respectively dissolved in one ml of 50 mM acetate buffer (pH 4.5), admixed with one unit of glucoamylase commercialized by Seikagaku-Kogyo Co., Ltd., Tokyo, Japan, to effect enzymatic hydrolysis at 40° C. for 6 hours. The only saccharides detected in every resultant mixture on HPLC analysis were glucose and trehalose.

[2] = test system: rat intestinal acetone powder; assay: Hydrolysis by rat intestinal acetone powder; assay type: in vitro ADME; settings: 50 mM maleate buffer pH 6.0, 37° C., 18 hours
Procedure: (§1) The enzymatic reaction with the α-amylase was as follows: Dissolving 10 mg of a substrate in one ml of 50 mM phosphate buffer (pH 6.9), mixing the resultant solution with one unit of the α-amylase, and incubating the resultant mixture at 37° C. for 18 hours. The enzymatic reaction with the α-glucosidase was conducted under the same conditions as in the case of α-amylase except that 50 mM acetate buffer (pH 4.0) was used as a buffer. The enzymatic reaction with the rat intestinal acetone powder was carried out under the same conditions as in the case of α-amylase except that 50 mM maleate buffer (pH 6.0) was used as a buffer.

[3] = test system: 7-week old dd-strain mice; assay: Acute toxicity test, oral; assay type: in vivo; settings: for Death of mice: oral, highest possible doses; for LD50: mouse, in vivo, po
β-amylase = β-amylase (Glycine max, UniProt P10538); assay: Hydrolysis by β-amylase; assay type: biochemical; settings: similarly as with glucoamylase
Chain of β-amylase (P10538 whole entry, species assumed): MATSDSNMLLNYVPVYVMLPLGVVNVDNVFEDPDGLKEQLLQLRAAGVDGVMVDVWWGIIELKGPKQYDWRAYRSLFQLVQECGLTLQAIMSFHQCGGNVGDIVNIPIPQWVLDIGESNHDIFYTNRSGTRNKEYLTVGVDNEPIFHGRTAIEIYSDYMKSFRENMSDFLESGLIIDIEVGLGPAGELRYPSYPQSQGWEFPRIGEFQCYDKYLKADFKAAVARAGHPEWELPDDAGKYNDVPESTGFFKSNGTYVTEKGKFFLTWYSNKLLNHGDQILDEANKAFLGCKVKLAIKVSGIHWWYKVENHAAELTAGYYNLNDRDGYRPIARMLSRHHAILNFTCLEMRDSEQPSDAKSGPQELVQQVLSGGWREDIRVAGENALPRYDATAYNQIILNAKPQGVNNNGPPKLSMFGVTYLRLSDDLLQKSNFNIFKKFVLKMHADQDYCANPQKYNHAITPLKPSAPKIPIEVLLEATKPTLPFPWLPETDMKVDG

[4] = Reducing power by Somogyi-Nelson's method expressed as DE; assay type: physicochemical; settings: high-purity saccharide preparations of Experiment 4
Procedure: The reducing powders of these novel saccharides were determined on the Somogyi-Nelson's method and expressed by DE (dextrose equivalent).

[5] = target: T1, α-glucosidase specimen derived from rice (Oryza sativa subsp. japonica, UniProt Q653V7); assay: Hydrolysis by α-glucosidase; assay type: biochemical; settings: 50 mM acetate buffer pH 4.0, 37° C., 18 hours
T1 construct: purchased Sigma Chemical Company, St. Louis, USA; host or cells: rice
T1 sequence (Q653V7 34-885): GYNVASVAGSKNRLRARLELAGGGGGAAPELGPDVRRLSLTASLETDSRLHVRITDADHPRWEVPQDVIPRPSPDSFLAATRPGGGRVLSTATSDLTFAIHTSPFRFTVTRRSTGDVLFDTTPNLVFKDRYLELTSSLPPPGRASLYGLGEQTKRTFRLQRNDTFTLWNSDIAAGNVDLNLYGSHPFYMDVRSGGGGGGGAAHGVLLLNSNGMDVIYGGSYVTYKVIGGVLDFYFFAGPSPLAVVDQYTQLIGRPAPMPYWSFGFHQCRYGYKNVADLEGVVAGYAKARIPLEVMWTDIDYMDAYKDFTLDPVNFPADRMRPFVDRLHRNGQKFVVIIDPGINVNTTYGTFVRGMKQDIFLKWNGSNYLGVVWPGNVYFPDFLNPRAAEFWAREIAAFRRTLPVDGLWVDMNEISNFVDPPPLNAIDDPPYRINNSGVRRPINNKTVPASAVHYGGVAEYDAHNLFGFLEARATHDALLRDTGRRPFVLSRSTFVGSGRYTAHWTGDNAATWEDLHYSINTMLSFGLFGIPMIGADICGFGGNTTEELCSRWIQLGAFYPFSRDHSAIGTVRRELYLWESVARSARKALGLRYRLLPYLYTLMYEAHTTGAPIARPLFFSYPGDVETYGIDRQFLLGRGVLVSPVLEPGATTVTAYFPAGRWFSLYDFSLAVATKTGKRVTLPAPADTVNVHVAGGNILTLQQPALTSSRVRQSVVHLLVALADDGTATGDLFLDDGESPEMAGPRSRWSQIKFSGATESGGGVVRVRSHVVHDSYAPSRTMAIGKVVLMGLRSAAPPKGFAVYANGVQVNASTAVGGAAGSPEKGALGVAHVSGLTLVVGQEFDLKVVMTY
Procedure: as §1

[6] = Maillard reaction with glycine; assay type: physicochemical; settings: for Coloration degree (480 nm): 1% glycine, 10% saccharide, 50 mM phosphate buffer pH 7.0, 100° C. for 90 min, absorbance in 1-cm cell; for Coloration degree relative to corresponding material maltooligosaccharide: Maillard reaction, 480 nm
Procedure: As a control, maltotriose, maltotetraose, maltopentaose, maltohexaose and maltoheptaose as a material for the saccharide preparations were similarly treated as above, and measured their absorbances were measured at a wave length of 480 nm.

[7] = target: T2, α-amylase specimen derived from pig pancreas (Sus scrofa, UniProt P00690); assay: Hydrolysis by α-amylase; assay type: biochemical; set-up: Saccharide composition of hydrolysate: P I / Saccharide composition of hydrolysate: P II / Saccharide composition of hydrolysate: G3 (maltotriose) / Saccharide composition of hydrolysate: G2 (maltose) / Saccharide composition of hydrolysate: G1 (glucose): unit not given here; settings: for Hydrolysis by α-amylase: conclusion from Table 6; for Saccharide composition of hydrolysate: G1 (glucose) / Saccharide composition of hydrolysate: G2 (maltose) / Saccharide composition of hydrolysate: G3 (maltotriose) / Saccharide composition of hydrolysate: P I / Saccharide composition of hydrolysate: P II: α-amylase, 10 mg/ml, pH 6.9, 37° C., 18 hours, HPLC
T2 construct: purchased Sigma Chemical Company, St. Louis, USA; host or cells: pig pancreas
T2 sequence (P00690 16-511): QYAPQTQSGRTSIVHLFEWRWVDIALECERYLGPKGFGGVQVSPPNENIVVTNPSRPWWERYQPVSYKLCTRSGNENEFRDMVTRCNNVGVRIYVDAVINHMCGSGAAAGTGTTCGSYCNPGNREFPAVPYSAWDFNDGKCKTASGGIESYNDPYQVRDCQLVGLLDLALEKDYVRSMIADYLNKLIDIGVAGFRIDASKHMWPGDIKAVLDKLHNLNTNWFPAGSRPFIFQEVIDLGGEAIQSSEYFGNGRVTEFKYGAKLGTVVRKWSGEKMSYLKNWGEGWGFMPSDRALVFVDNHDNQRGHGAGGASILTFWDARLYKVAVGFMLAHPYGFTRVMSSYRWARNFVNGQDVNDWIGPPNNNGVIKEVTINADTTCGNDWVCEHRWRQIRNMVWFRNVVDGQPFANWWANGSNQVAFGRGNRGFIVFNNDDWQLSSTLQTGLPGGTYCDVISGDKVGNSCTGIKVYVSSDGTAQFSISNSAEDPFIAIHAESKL
Procedure: as §1

[8] = target: T3, trehalase derived from pig kidney (Sus scrofa, UniProt I3LIR5); assay: Hydrolysis by trehalase; assay type: biochemical; settings: one unit trehalase, pH 5.7, 37° C., 18 hours; HPLC
T3 construct: purchased Sigma Chemical Company, St. Louis, USA; host or cells: pig kidney
T3 sequence (I3LIR5 24-583): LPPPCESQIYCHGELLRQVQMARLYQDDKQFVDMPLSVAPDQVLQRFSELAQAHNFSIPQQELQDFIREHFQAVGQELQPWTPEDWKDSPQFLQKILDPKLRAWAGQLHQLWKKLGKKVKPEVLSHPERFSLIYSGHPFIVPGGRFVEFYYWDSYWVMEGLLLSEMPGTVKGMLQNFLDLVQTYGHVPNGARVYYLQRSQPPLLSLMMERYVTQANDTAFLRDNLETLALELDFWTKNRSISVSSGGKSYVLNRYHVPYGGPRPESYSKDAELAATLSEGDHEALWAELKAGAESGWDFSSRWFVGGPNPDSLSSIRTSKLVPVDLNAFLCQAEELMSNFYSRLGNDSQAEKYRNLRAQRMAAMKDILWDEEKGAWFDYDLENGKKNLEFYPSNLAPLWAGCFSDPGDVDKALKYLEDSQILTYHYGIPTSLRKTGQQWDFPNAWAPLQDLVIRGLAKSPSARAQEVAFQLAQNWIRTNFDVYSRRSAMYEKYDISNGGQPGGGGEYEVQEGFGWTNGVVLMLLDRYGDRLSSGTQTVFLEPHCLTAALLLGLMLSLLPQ

| Structure (SMILES) | Glucose (glucoamylase) [%] | Trehalose (glucoamylase) [%] | Molecular ratio (Glucose/Trehalose) (glucoamylase) | Saccharide composition of hydrolysate with rat intestinal acetone powder: Glucose [2] [%] | Saccharide composition of hydrolysate with rat intestinal acetone powder: Other saccharides [2] [%] | Saccharide composition of hydrolysate with rat intestinal acetone powder: Trehalose [2] [%] | Death of mice [3] | Hydrolysis by β-amylase (β-amylase) | DE [4] | Saccharide composition of hydrolysate with α-glucosidase: Glucose [5] [%] | Saccharide composition of hydrolysate with α-glucosidase: Other saccharides [5] [%] | Saccharide composition of hydrolysate with α-glucosidase: Trehalose [5] [%] | Coloration degree (480 nm) [6] | Coloration degree relative to corresponding material maltooligosaccharide [6] | Hydrolysis by α-amylase [7] | Saccharide composition of hydrolysate: G1 (glucose) [7] | Saccharide composition of hydrolysate: G2 (maltose) [7] | Saccharide composition of hydrolysate: G3 (maltotriose) [7] | Saccharide composition of hydrolysate: P I [7] | Saccharide composition of hydrolysate: P II [7] | other results |
| --- | --- | --- | --- | --- | --- | --- | --- | --- | --- | --- | --- | --- | --- | --- | --- | --- | --- | --- | --- | --- | --- |
| OC[C@H]1O[C@H](O[C@H]2O[C@H](CO)[C@@H](O)[C@H](O)[C@H]2O)[C@H](O)[C@@H](O)[C@@H]1O [Example A-6, trehalose] | – | – | – | – | – | – | – | – | – | – | – | – | – | – | – | – | – | – | – | – | Hygroscopicity [1]: no substantial hygroscopicity |
| OC[C@H]1O[C@H](O[C@H]2O[C@H](CO)[C@@H](O[C@H]3O[C@H](CO)[C@@H](O[C@H]4O[C@H](CO)[C@@H](O[C@H]5O[C@H](CO)[C@@H](O)[C@H](O)[C@H]5O)[C@H](O)[C@H]4O)[C@H](O)[C@H]3O)[C@H](O)[C@H]2O)[C@H](O)[C@@H](O)[C@@H]1O [P III, α-maltotriosyl trehalose] | 61.4 | 38.6 | 3.02 | 62.0 | 0.4 | 37.6 | no mouse died | one mole of maltose and one mole of P I | 0.10 | 61.7 | 0.2 | 38.1 | 0.012 | 3-6% | hydrolyzed by α-amylase into lower molecular weight oligosaccharides | 1.2 | 33.0 | 0 | 61.0 | 4.8 | – |
| OC[C@H]1O[C@H](O[C@H]2O[C@H](CO)[C@@H](O[C@H]3O[C@H](CO)[C@@H](O[C@H]4O[C@H](CO)[C@@H](O[C@H]5O[C@H](CO)[C@@H](O[C@H]6O[C@H](CO)[C@@H](O)[C@H](O)[C@H]6O)[C@H](O)[C@H]5O)[C@H](O)[C@H]4O)[C@H](O)[C@H]3O)[C@H](O)[C@H]2O)[C@H](O)[C@@H](O)[C@@H]1O [P IV, α-maltotetraosyl trehalose] | 68.3 | 31.7 | 4.09 | 68.8 | 0.4 | 30.8 | no mouse died | one mole of maltose and one mole of P II | 0.27 | 69.5 | 0.3 | 30.2 | 0.016 | 3-6% | hydrolyzed by α-amylase into lower molecular weight oligosaccharides | 1.6 | 7.5 | 40.4 | 47.2 | 3.3 | LD50 [3]: ≥ 50000 mg/kg |
| OC[C@H]1O[C@H](O[C@H]2O[C@H](CO)[C@@H](O[C@H]3O[C@H](CO)[C@@H](O[C@H]4O[C@H](CO)[C@@H](O[C@H]5O[C@H](CO)[C@@H](O[C@H]6O[C@H](CO)[C@@H](O[C@H]7O[C@H](CO)[C@@H](O)[C@H](O)[C@H]7O)[C@H](O)[C@H]6O)[C@H](O)[C@H]5O)[C@H](O)[C@H]4O)[C@H](O)[C@H]3O)[C@H](O)[C@H]2O)[C@H](O)[C@@H](O)[C@@H]1O [P V, α-maltopentaosyl trehalose] | 72.9 | 27.1 | 5.11 | 73.4 | 0.1 | 26.5 | no mouse died | two moles of maltose and one mole of P I | 0.23 | 71.4 | 0.3 | 28.3 | 0.015 | 3-6% | hydrolyzed by α-amylase into lower molecular weight oligosaccharides | 1.0 | 8.6 | 35.3 | 10.2 | 44.9 | LD50 [3]: ≥ 50000 mg/kg |
| OC[C@H]1O[C@H](O[C@H]2O[C@H](CO)[C@@H](O)[C@H](O)[C@H]2O)[C@H](O)[C@@H](O)[C@@H]1O [trehalose, α, α-trehalose] | – | – | – | – | – | – | – | – | – | – | – | – | – | – | – | – | – | – | – | – | Hydrolysis by trehalase [8]: hydrolyzed by trehalase into glucose molecules |
